From PubChem BioAssay (NCI)
Values joined by “and” are separate entries in the source; they are usually repeats but may differ in a detail not shown here. Equal entries are not always repeated.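 Grown in 96-well plates, cells were treated for 48 hours with each compound at five concentrations. Insufficient inhibition: endpoint recorded as highest concentration tested. The concentration for 50% growth inhibition is given as GI50. Definition used: TGI = concentration required for complete inhibition of growth.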

The molecules below were run on MDA-MB-468 breast (assay: inhibition of tumour cell growth, NCI panel, 48 h).
In the case of `C=C1C(=O)O[C@H]2[C@H]1CC/C(COC(=O)/C=C\C(=O)NCc1ccc(Cn3c(=O)sn(CCCC)c3=O)cc1)=C\CC[C@@]1(C)O[C@@H]21`, the GI50 is reported as 0.348 µM and the TGI is reported as 1.39 µM.
Molecule `COc1ccc(-c2ccc(-c3ccc(C(=N)N)s3)s2)cc1` has a GI50 of 0.187 µM and a TGI of 0.379 µM.
Work on `CC(=O)Oc1ccccc1C(=O)Nc1ncc([N+](=O)[O-])s1` yielded a GI50 of 1.93 µM and a TGI of 7.64 µM.
`Cc1cc(C)c(/C=C2\C(=O)Nc3ccc(NC(=O)CCCCCCC(=O)NO)cc32)[nH]1` showed a GI50 of 0.367 µM and a TGI of 22.6 µM.
`CCn1c(=O)c2c(=O)c3c4c(oc3oc2c2ccccc21)C(=O)c1ccccc1C4=O` showed a GI50 of 0.199 µM and a TGI of 0.701 µM.
For `Cn1cc(C2=C(c3cccc(Br)c3)C(=O)NC2=O)c2ccccc21`, the GI50 was 6.7 µM and the TGI was > 25 µM.
With `OCCCNc1nccc(-c2c(-c3ccc(F)cc3)nn3cc(C(F)(F)F)ccc23)n1` the GI50 was 6.72 µM and the TGI was > 20.3 µM.
For `COc1cc(OC)c(/C=C/c2c3ccccc3cc[n+]2C)c(OC)c1`, the GI50 was 0.266 µM and the TGI was 2.66 µM.
For `COc1ccc(-n2c(C)cc(-c3ccccc3)c2C)cc1`, the GI50 was 1.31 µM and the TGI was 3.47 µM.
`O=C(NNc1nc2cc(F)c(F)cc2n2c(CN3CC4CNCC4C3)ccc12)c1cnccn1` (centres undefined) gave a GI50 of 1.34 µM and a TGI of 6.54 µM.
`O=S(=O)(Nc1ccc(F)cc1F)c1ccc(-c2cnc(C3CC3)o2)cc1` showed a GI50 of 0.39 µM and a TGI of 7.86 µM.
With `Cc1cc(C)c(NC(=O)c2sc3nc4c(cc3c2N)CN(Cc2ccccc2)CC4)c(C)c1` the GI50 was 1.78 µM and the TGI was 88.7 µM.
With `N=C(N)c1ccc2nc(-c3cc(CC(=O)N[C@@H](CC(=O)O)C(=O)O)cc(-c4cc(S(N)(=O)=O)ccc4O)c3O)[nH]c2c1` the GI50 was > 100 µM and the TGI was > 100 µM.
With `CCCCCOc1ccc(/C=N/Nc2cc(C)nc3ccc(Br)cc23)cc1` the GI50 was 1.83 µM and the TGI was 3.57 µM.
For `O=C1NC(=O)C(c2cccc([N+](=O)[O-])c2)=C1Nc1cc(Cl)c(O)c(Cl)c1`, the GI50 was 12.3 µM and the TGI was > 25 µM.
Work on `CCN1C(=O)N(CC)C2C1NN=c1s/c(=C3\C(=O)N(CC(C)(C)C)c4ccccc43)c(=O)n12` (centres undefined) yielded a GI50 of 3.85 µM and a TGI of 18.8 µM.
With `C1=C\COCc2cc(ccc2OCCN2CCCC2)Nc2nccc(n2)-c2cccc(c2)COC/1` the GI50 was 1.32 µM and the TGI was 3.79 µM.
In the case of `O=C(CSC1CCc2ccccc21)N/N=C/c1ccccc1O` (centres undefined), the GI50 is reported as 2.73 µM and the TGI is reported as 13.9 µM.
`NC(=O)OCCn1cc(-c2nc(-c3c[nH]c4ncccc34)cs2)c2ccccc21` showed a GI50 of 1.33 µM and a TGI of 3.8 µM.
With `CCOC(=O)/C=C(/C)Sc1cc(O)c2ccccc2c1O` the GI50 was 3.55 µM and the TGI was 12.1 µM.
In the case of `COc1cc(/C=C/C(=O)c2cc(OC)c(OC)c(OC)c2)ccc1OCc1ccc(F)cc1`, the GI50 is reported as 2.84 µM and the TGI is reported as > 100 µM.
With `COC(=O)[C@@H](C)C[C@H](Cc1ccccc1)NC(=O)c1csc([C@@H](C[C@H](C(C)C)N(C)C(=O)[C@@H](NC(=O)[C@H]2CCCCN2C)C2CCCCC2)OC(C)=O)n1` the GI50 was 0.000311 µM and 0.0025 µM and the TGI was > 25 µM.
`Cc1[nH]c(/C=C2\C(=O)Nc3ccccc32)c(C)c1CCC(=O)O` showed a GI50 of 25.6 µM and a TGI of 70 µM.
In the case of `COCC1(CO)C(=O)C2CCN1CC2` (centres undefined), the GI50 is reported as 18.4 µM and the TGI is reported as 40.3 µM.
With `CN(CCO)c1ccc(N2Cc3ccccc3OC3=C2C(=O)c2c(O)ccc(O)c2C3=O)cn1` the GI50 was 0.257 µM and the TGI was 0.659 µM.
Molecule `C#COc1cccc(Nc2c(C#N)cnc3ncc(NC(=O)CCl)cc23)c1` has a GI50 of 12.7 µM and a TGI of 60.3 µM.
With `O=C(c1ccc(/C=C/c2n[nH]c3ccccc23)cc1)N1CCNCC1` the GI50 was 2.45 µM and 9.15 µM and the TGI was > 10 µM and 22.5 µM.
`CCN(Cc1ccccc1C)c1ccc(CO)c(Cl)c1` showed a GI50 of 0.0388 µM and a TGI of 0.288 µM.
`O=C1NC(=O)/C(=C\c2ccccc2)C2=C1CCCC2` showed a GI50 of 10.1 µM and a TGI of 30.2 µM.
`O=C(Nc1ccc(-n2ccc3c(NC(=O)c4ccccc4)nccc32)cc1)Nc1ccc(Cl)c(Cl)c1` showed a GI50 of 1.41 µM and a TGI of 2.96 µM.
For `O=C1NC(=NCCc2cccc(Cl)c2)S/C1=C\c1ccc2ncccc2c1`, the GI50 was > 25 µM and the TGI was > 25 µM.
`C[C@H]1[C@H](C)CC[C@]2(C(=O)Nc3ccc4ncccc4c3)CC[C@]3(C)C(=CC[C@@H]4[C@@]5(C)CCCNC(C)(C)[C@@H]5CC[C@]43C)[C@H]12` showed a GI50 of 1.74 µM and a TGI of 3.45 µM.
`COc1ccc(O)c(C(=O)c2ccc(C(=O)N[C@H]3CCCNC[C@@H]3NC(=O)c3ccncc3)cc2)c1F` was tested, and the GI50 was 0.552 µM and the TGI was > 25 µM.
With `O[C@H](c1cc(C(F)(F)F)nc2c(C(F)(F)F)cccc12)[C@@H]1CCCCN1` the GI50 was 1.72 µM and the TGI was 4.19 µM.
In the case of `O=C(CSc1nnc(-c2ccc(Cl)cc2)n1-c1ccccc1)Nc1cccc(F)c1`, the GI50 is reported as 4.31 µM and the TGI is reported as > 100 µM.
In the case of `CCCOc1ccc2sc(NC(=O)OC)nc2c1`, the GI50 is reported as 1.19 µM and the TGI is reported as > 100 µM.
With `CCOC(=O)c1c(NC(=O)c2cccc(C(F)(F)F)c2)sc2c(CN(C)C)c(O)ccc12` the GI50 was 1.72 µM and the TGI was 3.8 µM.
